According to the OligoGym collection:
These antisense oligonucleotides have a phosphorothioate backbone; sugars and methylation of C are not fully specified.

How the values were obtained:
[1] = target: GNA13; settings: ASO
[2] = target: E2F1; settings: ASO
Further: test concentration or dose not given here.

Row | Sequence | remaining target (mRNA or protein) (fraction of control) [1] | remaining target (mRNA or protein) (fraction of control) [2]
1 | GTTTCCTTTCTGATCTCT | 0.35 | –
2 | CCCGTGGATGATCCGCAT | ≥ 1 | –
3 | GTGGTCAGATTCAGTGAGGT | – | 0.43
4 | TGAGTTGTCTCCCCAGGG | ≥ 1 | –
5 | CATCTTGCCGCCGCCGCC | 0.99 | –
6 | CTGCAATGCTACGAAGGTCC | – | 0.26
7 | CGGACCGCGACGGCAGGA | 0.58 | –
8 | CACCGTCCTACACGCCCAGC | – | 0.44
9 | AATTCTGGTTGTAAACTG | ≥ 1 | –
10 | AAGGTGGACTTGCCGCTC | 0.24 | –
11 | GCAAGCAGAATATCTTGT | 0.5 | –
12 | CGCGGCGGAGATGATGACGA | – | ≥ 1
13 | AAAGTCGTATTCATGGAT | ≥ 1 | –
14 | CAATTTGCACCTTCTCCT | 0.29 | –
15 | CGCAGCTGCGTAGTACAGAT | – | ≥ 1
16 | GCCACTGGATGTGGTTCTTG | – | 0.94
17 | GGCCGAAAGTGCAGTTAGAG | – | ≥ 1
18 | CCGCTGCCTGCAAAGTCCCG | – | 0.92
19 | GCCCACTGCTCTCGGCCAGG | – | 0.4
20 | CCACTCACCTCTCCCATCTC | – | 0.72
21 | ATGAGCTGGATGCCCTCAAG | – | 0.56
22 | ACCCTCATACCTTTGATC | 0.09 | –
23 | CTCAGAAGTGACCTCCTGGG | – | 0.73

Row | Sequence | remaining target (mRNA or protein) (fraction of control) [1] | remaining target (mRNA or protein) (fraction of control) [2]
24 | CGCCTCGCCGCCTCTCCG | 0.75 | –
25 | GATCTCCTTGGACTTGCG | 0.33 | –
26 | CTTCATTCCCCGGTACATGC | – | 0.72
27 | GGCTTGCTCAGCCTCCTAGC | – | 0.17
28 | GCTCCAGGCTGAGTAGAGAC | – | 0.73
29 | CCTCGGCGAGGGCTCGATCC | – | 0.8
30 | CATAAGCACCTGGTCAAA | 0.1 | –
31 | ACTCGTCAGCAGGCAGCC | ≥ 1 | –
32 | AATATTTTACAGATTCAC | ≥ 1 | –
33 | GCCCGGGTATCAAACGAC | 0.26 | –
34 | ACCTACGGTCTCCTCAGGGC | – | 0.21
35 | AGCAGCAGGATCTTCACC | 0.54 | –
36 | TAAGGGCTTCTGTTGCTG | 0.55 | –
37 | AGGGACCCCTGCCCTTGCTC | – | 0.23
38 | TCTGACCACCTACATCAA | 0.2 | –
39 | AAGTCCCGGCCACGGAATTC | – | 0.87
40 | AACCCCACACCCCTCCTCCC | – | 0.86
41 | ATGTCATAGATGCGCCGCTT | – | 0.77
42 | GACCGCGACGGCAGGAAG | ≥ 1 | –
43 | ACACACACATGCTCACACAC | – | 0.56
44 | CGGTCATAGGCATTCTGT | 0.66 | –
45 | CGAGCAGGGCCTCCAGCGCC | – | 0.9
46 | TGGCAGAGTCAGTGGCCCTG | – | 0.94

Row | Sequence | remaining target (mRNA or protein) (fraction of control) [1] | remaining target (mRNA or protein) (fraction of control) [2]
47 | AAAAGATATTAAAACAGC | ≥ 1 | –
48 | GAGGAGGCCGGAGAAGTCCT | – | 0.75
49 | GCTGAAAACCCGGTTATT | 0.65 | –
50 | CGATTGGTCAGTCGATCT | ≥ 1 | –
51 | AGTCCGCCATCTTGCCGC | ≥ 1 | –
52 | CCCATGGCTGTCAGTCAGTC | – | ≥ 1
53 | TGGAGAGGGCCCACCCCACC | – | 0.62
54 | CACCCAGGCCTCAGTTCCTT | – | 0.92
55 | ACCTCGGCAGCCCAGTTCAG | – | ≥ 1
56 | CAAATCTTGGCGATGAGT | 0.31 | –
57 | GAGGCCTCGATAAATAAATA | – | 0.94
58 | TTTAACGTCATCAAAATATT | – | 0.93
59 | CCGCTGTCTGCCCATAAT | 0.08 | –
60 | GGATCCCCTTCAAATTCT | 0.72 | –
61 | GGGAGATGATGGTGGTGGTG | – | ≥ 1
62 | ACACCACACAGACTCCTTCC | – | 0.6
63 | CGGCGGGCGGCCGAGCGCGG | – | 0.83
64 | GCCAGGCGCTGGCTGTCAGT | – | 0.69
65 | AGAACAGAATTATGGAGA | 0.31 | –
66 | ATGTTCTCCGTGTTGATA | 0.67 | –
67 | CACAGGAAAACATCGATCGG | – | 0.9
68 | TTGCTGATTCCCCAGGCTCA | – | 0.36
